# Measured values: PMC10060569 (Frontiers in Pharmacology, 2023)
# Target: T1, hP2X2R (Homo sapiens, UniProt Q9UBL9)
# T1 construct: expressed in transfected cells; host or cells: Xenopus laevis oocytes (cRNA injection)
# T1 sequence (Q9UBL9 1-471): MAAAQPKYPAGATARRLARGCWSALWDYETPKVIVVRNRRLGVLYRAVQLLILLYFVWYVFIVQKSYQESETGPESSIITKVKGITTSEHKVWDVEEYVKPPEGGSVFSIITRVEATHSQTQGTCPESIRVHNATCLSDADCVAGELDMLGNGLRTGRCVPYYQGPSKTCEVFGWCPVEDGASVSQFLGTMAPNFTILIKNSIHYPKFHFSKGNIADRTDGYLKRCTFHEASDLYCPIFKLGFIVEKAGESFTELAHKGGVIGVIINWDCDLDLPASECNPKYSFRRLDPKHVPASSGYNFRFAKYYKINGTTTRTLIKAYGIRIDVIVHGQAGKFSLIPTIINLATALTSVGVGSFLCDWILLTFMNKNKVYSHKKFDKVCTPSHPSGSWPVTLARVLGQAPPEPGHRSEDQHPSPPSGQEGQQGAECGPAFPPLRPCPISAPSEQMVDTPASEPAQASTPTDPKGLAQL
# Assay: TEVC of ATP-induced currents, hP2X2R in X. laevis oocytes (steady-state protocol)
# Assay type: cell-based
# Source text: Oocyte expression plasmids encoding the wild-type (wt) and N-terminally His-tagged (His-) fusion constructs of the hP2X2R, hP2X3R, hP2X4R, and hP2X7R, and the mutant His-^20RMVL^23KVIV^23S^26N-hP2X1R, S^15V-rP2X3R, and His-S^15V-hP2X3R were the same as used in previous research ([Hausmann et al., 2006]; [Wolf et al., 2011]; [Hausmann et al., 2014]; [Obrecht et al., 2019]). In most cases, the N-terminal His-tagged variants of P2XRs were used here and in the previous studies to allow biochemical analyses on affinity-purified proteins using the same constructs. Although this was not required for the present study, it allows for better comparability with our previous studies. Capped cRNAs of different P2XRs were already available in the research group or were synthesized as previously described ([Schmalzing et al., 1991]; [Stolz et al., 2015]). cRNA was injected into collagenase-defolliculated X. laevis oocytes in aliquots of 41 nl or 23 nl (see Supplementary Table S1 for the amount of cRNA used for expression of the indicated P2XR) using a Nanoliter 2000 injector (World Precision Instruments, Sarasota, United States of America) as described previously ([Hausmann et al., 2014]; [Stolz et al., 2015]; [Obrecht et al., 2019]). To express the heteromeric hP2X2/3 receptor, cRNAs encoding His-hP2X2R and wt-hP2X3R were coinjected at a ratio (w/w) of 1:6. Oocytes were stored at 19°C in an oocyte ringer solution (ORi^+) containing 90 mM NaCl, 1 mM KCl, 1 mM CaCl2, 1 mM MgCl2, and 10 mM HEPES (Carl Roth, Karlsruhe, Germany) adjusted to pH 7.4 with NaOH and supplemented with 50 μg/ml gentamicin (AppliChem, Darmstadt, Germany). The procedures followed for the maintenance of and the surgical treatment for X. laevis adults were approved by the governmental animal care and use committee of the State Agency for Nature, Environment, and Consumer Protection (LANUV, Recklinghausen, Germany; reference no. 81-02.04.2019. A355), in compliance with Directive 2010/63/EU of the European Parliament and of the Council on the protection of animals used for scientific purpose.
# Ion currents mediated by P2X receptors were evoked by the indicated concentration of ATP or α,β-meATP and were recorded 1 or 2 days after cRNA injection at ambient temperature at a holding potential of −60 mV by two-electrode voltage clamp (TEVC) as previously described ([Hausmann et al., 2006]). Calcium-free ORi^− solution (90 mM NaCl, 1 mM KCl, 2 mM MgCl2, 10 mM HEPES, pH 7.4) was used to avoid bias due to calcium-activated chloride channels (CaCC) endogenously expressed in X. laevis oocytes ([Miledi, 1982]; [Methfessel et al., 1986]). For recordings of wt-hP2X7R, the composition of the ORi^− solution was modified according to protocols described previously and contained 100 mM NaCl, 2.5 mM KCl, 1 mM MgCl2, 5 mM HEPES, pH 7.4 ([Klapperstück et al., 2000]). The oocytes were continuously superfused with ORi^− by gravity flow (5–10 ml/min). The agonists ATP or α,β-meATP and the investigated NSAIDs were diluted in ORi^− on the day of the recording. The following agonist concentrations were used for the different P2X subtypes: 1 μM ATP (hP2X1R mutant, hP2X3R, rP2X3R, S^15V-hP2X3R, and S^15V-rP2X3R); 10 μM ATP (hP2X2R and hP2X4R); 300 μM free ATP^4- (hP2X7R); and 1 μM α,β-meATP (hP2X2/3R). […]
smiles,measurement,setting,value
"O=C(O)Cc1ccccc1Nc1c(Cl)cccc1Cl [Diclofenac, diclofenac]",increase in hP2X2R current amplitude (potentiation) on co-application with ATP,"10 µM ATP, compared to steady-state current in absence of the drug",1.7 fold
same,IC50,"10 µM ATP, steady-state protocol, * no inhibition, but potentiation",no inh.*
same,Max. inhibition at 1 mM,"10 µM ATP, * no inhibition, but potentiation",no inh.*
same,agonist effect (current induced in the absence of ATP),"100 µM diclofenac, 300 µM FFA, absence of ATP",Neither 100 µM diclofenac nor 300 µM FFA induced current
"O=C(O)c1ccccc1Nc1cccc(C(F)(F)F)c1 [Flufenamic acid, flufenamic acid]",EC50,"10 µM ATP, concentration–response curve, read-out: half-maximal potentiation value",158 µM
